A short description of series [1]: Water solubility by saturating water, lyophilizing and weighing. It is filed as physicochemical. The note with it: thermodynamic from solid; saturated water. The text has this: Solubility in water was expressed in mol/L (M).
Series [2] can be described thus: Surface tension in water by the Wilhelmy plate method (surfactant properties). It is filed as physicochemical. The note with it: 25 °C; for Minimum occupied area per molecule at the air–water interface (σ): calculated from curve log C vs. γ; for Critical aggregation concentration (CAC): from curve log C vs. γ. As to the method: The surface tension (γ) in water was determined using the Wilhelmy plate method at 25 °C. […] With this curve, parameters such as critical aggregation concentration (CAC) and minimum occupied area per molecule at the air–water interface (σ) were calculated, as well as the surface tension that remains constant from CAC (γw).
Surface tension (γ) was obtained by the Wilhelmy plate method, using a Force Tensiometer KRUSS at 25 °C. […] The curve log C vs. γ allowed us to calculate critical aggregate concentration (CAC), minimum occupied area per molecule at the air–water interface (σ) and the surface tension (γw) that remains constant after the CAC was obtained. Each measurement was conducted in triplicate.

For series [3] the following is noted: DPPH; cited from earlier work.
For a further series, the system named is E. coli. The arrangement: method as in PMID 743641. The note with it: cited from earlier work.
A short description of series [4]: Radical scavenging activity by the DPPH method. Type of series: biochemical. As to conditions: DPPH 10^−4 M in methanol, triplicate. As to the method:
This method measures the antioxidant capacity of a compound to reduce the purple-colored DPPH radical solution to yellow-colored DPPH-H. DPPH solution was prepared at a concentration of 10^−4 M in methanol. The IC50 was calculated using the formula IC50 = (y − b)/a obtained from the equation of the line y = ax + b where a is the directing coefficient and b the y-intercept. Each measurement was conducted in triplicate.

The next series deals with Escherichia coli. Kind of series: Antibacterial activity by resazurin reduction test. As to conditions: fluorescence over 72 h, compounds in DMSO, triplicate, read-out: Antibacterial Activity Against E. coli: IC50. It is filed as cell-based. The text has this:
These properties are usually studied by dilution and disk diffusion assay. The resazurin test is another method that can be used for measuring antibacterial activity. It is a protocol based on cell viability assays. […] This process leads to the formation of a pink fluorescent substance called resorufin. This reduction allows bacterial metabolic activity to be measured directly by measuring fluorescence. This is used to determine the antibacterial activity of the compounds being tested, using a fluorescence microplate reader. The lower the resorufin production, the lower the measured fluorescence and the higher the antibacterial activity.
Resazurin is a blue colorant that reduces to the fluorescent pink resorufin when metabolized by the cells from bacterial respiratory chains. The metabolic activity of the cells was measured by reading the fluorescence over 72 h using a BioTek FLx800 Fluorescence Microplate Reader.
Strains of Escherichia coli were cultured for 12 h on solid LB medium (Luria–Bertani) at 35 °C. The next day, some colonies were taken and placed in a nutrient broth and incubated at 35 °C until an optical density of 0.4 was obtained. […] A control with ethoxyethanol was performed. A positive control to verify the growth of the bacteria in the absence of catechin or hemi-synthesis compound was performed as well. The IC50 was calculated using the formula IC50 = (y − b)/a obtained from the equation of the line y = ax + b, where a is the directing coefficient and b the y-intercept. Each measurement was conducted in triplicate.

On the set-up of series [5]: method as in doi:10.1016/j.fluid.2014.09.013. The note with it: anhydrous catechin; cited from earlier work.

≈ marks a conversion by molar mass, not a printed value. Read-outs that look alike come from different tables or passages of the source.

Take `CCCCCCCCCCCC(=O)OC1Cc2c(O)cc(O)cc2OC1c1ccc(O)c(O)c1` (stereo not shown) [6b, 2-(3,4-Dihydroxyphenyl)-5,7-dihydroxychroman-3-yl dodecanoate]: the solubility in series [1] amounted to 4800 µM (≈ 2270 µg/mL). Moreover, in series [2], the “Surface tension from CAC (γw)” value amounted to 49 mN/m, the “Minimum occupied area per molecule at the air–water interface (σ)” value (“Minimum occupied area per molecule” for short) was 17 Å^2/molecule and the “Critical aggregation concentration (CAC)” value turned out to be 680 µM.
In the case of `COc1ccc(O)c(C(C)(C)C)c1` [BHA, Butylated hydroxyanisole], the “Radical Scavenging Activity: IC50” value in series [3] was 21.3 ± 0.12 µg/mL. The “growth of E. coli” value in the series on E. coli (at concentrations above 100 μg/mL) is given as 33%.
Regarding `CCCCCCCCCCCCCC(=O)OC1Cc2c(O)cc(O)cc2OC1c1ccc(O)c(O)c1` (stereo not shown) [6c, 2-(3,4-Dihydroxyphenyl)-5,7-dihydroxychroman-3-yl tetradecanoate], the concentration in solution in series [1] (solubility) came to 4800 µM (≈ 2400 µg/mL). For the same compound, in series [2], the “Surface tension from CAC (γw)” value is 41 mN/m, the “Minimum occupied area per molecule” value is 23 Å^2/molecule and the “Critical aggregation concentration (CAC)” value was determined as 590 µM.
Take `Cc1cc(C(C)(C)C)c(O)c(C(C)(C)C)c1` [BHT, Butylated hydroxytoluene]: the “Radical Scavenging Activity: IC50” value in series [3] is 12.8 ± 0.08 µg/mL. Besides, the “effect on growth of E. coli” value with E. coli (regardless of the concentration) is reported as “fails to decrease the growth of E. coli”.
In turn, `CCCCCCCCCCCCCC(=O)N[C@@H](C)C(=O)OC1Cc2c(O)cc(O)cc2OC1c1ccc(O)c(O)c1` (stereo partly shown) [7c, 2-(3,4-Dihydroxyphenyl)-5,7-dihydroxychroman-3-yl tetradecanoylalaninate] yielded a solubility in series [1] of 580 µM (≈ 332 µg/mL). Moreover, in series [2], the “Surface tension from CAC (γw)” value came out at 33 mN/m, the “Minimum occupied area per molecule” value was 19 Å^2/molecule and the “Critical aggregation concentration (CAC)” value came out at 40 µM. Moreover, the “Radical Scavenging Activity: IC50” value in series [4] was 2.01 ± 0.05 µg/mL. In addition, the IC50 in the series with Escherichia coli came out at 23 ± 1 mM.
On to `Oc1cc(O)c2c(c1)O[C@H](c1ccc(O)c(O)c1)[C@@H](O)C2` [Catechin, (+)-catechin, reference compound], for which the “Radical Scavenging Activity: IC50” value in series [4] came to 2.43 ± 0.03 µg/mL. Further, in the series with Escherichia coli, the IC50 turned out to be 36 ± 2 mM. Also, the “Water Solubility” value in series [5] is 15700 µM.
As for `CCCCCCCCCCCCCCCC(=O)OC1Cc2c(O)cc(O)cc2OC1c1ccc(O)c(O)c1` (stereo not shown) [6d, 2-(3,4-Dihydroxyphenyl)-5,7-dihydroxychroman-3-yl hexadecanoate], the concentration in solution in series [1] (solubility) was 240 µM (≈ 127 µg/mL). In series [2], the “Surface tension from CAC (γw)” value was 42 mN/m, the “Minimum occupied area per molecule” value is recorded as 29 Å^2/molecule and the “Critical aggregation concentration (CAC)” value stood at 10 µM.
In series [1], `CCCCCCCCCCCC(=O)N[C@@H](C)C(=O)OC1Cc2c(O)cc(O)cc2OC1c1ccc(O)c(O)c1` (stereo partly shown) [7b, 2-(3,4-Dihydroxyphenyl)-5,7-dihydroxychroman-3-yl dodecanoylalaninate] had a solubility of 360 µM (≈ 196 µg/mL). Also, in series [2], the “Surface tension from CAC (γw)” value came out at 32 mN/m, the “Minimum occupied area per molecule” value is given as 10 Å^2/molecule and the “Critical aggregation concentration (CAC)” value was determined as 50 µM. Moreover, the “Radical Scavenging Activity: IC50” value in series [4] was determined as 2.42 ± 0.06 µg/mL. In addition, in the series with Escherichia coli, the IC50 turned out to be 34 ± 3 mM.
On to `O=c1c(O)c(-c2ccc(O)c(O)c2)oc2cc(O)cc(O)c12` [quercetin], for which the “Radical Scavenging Activity: IC50” value in series [3] is 1.59 ± 0.02 µg/mL.
For `CCCCCCCCCCCCCCCC(=O)N[C@@H](C)C(=O)OC1Cc2c(O)cc(O)cc2OC1c1ccc(O)c(O)c1` (stereo partly shown) [7d, 2-(3,4-Dihydroxyphenyl)-5,7-dihydroxychroman-3-yl hexadecanoylalaninate], in series [1], the concentration in solution (solubility) was 22 µM (≈ 13.2 µg/mL). For the same compound, in series [2], the “Surface tension from CAC (γw)” value came out at 32 mN/m, the “Minimum occupied area per molecule” value is 45 Å^2/molecule and the “Critical aggregation concentration (CAC)” value was 2 µM. The “Radical Scavenging Activity: IC50” value in series [4] stood at 26.73 ± 0.43 µg/mL.
As to `COc1cc(C[C@@H](CO)[C@H](CO)Cc2ccc(O)c(OC)c2)ccc1O` [secoisolariciresinol], in series [3], the “Radical Scavenging Activity: IC50” value is 9.39 ± 0.01 µg/mL.
Regarding `O=C(O)c1cc(O)c(O)c(O)c1` [gallic acid], in series [3], the “Radical Scavenging Activity: IC50” value was 2.04 ± 0.03 µg/mL.
In the case of `CCCCCCCC(=O)N[C@@H](C)C(=O)OC1Cc2c(O)cc(O)cc2OC1c1ccc(O)c(O)c1` (stereo partly shown) [7a, 2-(3,4-Dihydroxyphenyl)-5,7-dihydroxychroman-3-yl octanoylalaninate], the solubility in series [1] amounted to 1300 µM (≈ 634 µg/mL). Further, in series [2], the “Surface tension from CAC (γw)” value worked out at 35 mN/m, the “Minimum occupied area per molecule” value is on record as 8 Å^2/molecule and the “Critical aggregation concentration (CAC)” value amounted to 100 µM. In addition, the “Radical Scavenging Activity: IC50” value in series [4] came out at 2.06 ± 0.04 µg/mL. The IC50 in the series with Escherichia coli was determined as 32 ± 3 mM.
As to `O=C(OC[C@H]1O[C@@H](OC(=O)c2cc(O)c(O)c(OC(=O)c3cc(O)c(O)c(O)c3)c2)[C@H](OC(=O)c2cc(O)c(O)c(OC(=O)c3cc(O)c(O)c(O)c3)c2)[C@@H](OC(=O)c2cc(O)c(O)c(OC(=O)c3cc(O)c(O)c(O)c3)c2)[C@@H]1OC(=O)c1cc(O)c(O)c(OC(=O)c2cc(O)c(O)c(O)c2)c1)c1cc(O)c(O)c(OC(=O)c2cc(O)c(O)c(O)c2)c1` [tannic acid], the “Radical Scavenging Activity: IC50” value in series [3] is 23.65 µg/mL.
In series [1], `CCCCCCCC(=O)OC1Cc2c(O)cc(O)cc2OC1c1ccc(O)c(O)c1` (stereo not shown) [6a, 2-(3,4-Dihydroxyphenyl)-5,7-dihydroxychroman-3-yl octanoate] yielded a solubility of 6000 µM (≈ 2500 µg/mL). Also, in series [2], the “Surface tension from CAC (γw)” value is reported as 43 mN/m, the “Minimum occupied area per molecule” value was 14 Å^2/molecule and the “Critical aggregation concentration (CAC)” value amounted to 890 µM.
Regarding `O=C(O)/C=C/c1ccc(O)c(O)c1` [caffeic acid], the “Radical Scavenging Activity: IC50” value in series [3] is 10.64 µg/mL.
Regarding `O=C1c2c(O)cc(O)cc2OC(c2ccc(O)c(O)c2)C1O` (stereo not shown) [taxifolin], the “Radical Scavenging Activity: IC50” value in series [3] was 10.06 ± 1.08 µg/mL.

(Values after article PMC12608305, “Rapid Hemi-Synthesis of Multifunctional Amphiphilic Derivatives Based on Polyphenolic Extractives: Surface Activity, Antioxidant and Antibacterial Properties” (Molecules, 2025).)
